Consider four molecules from patent US20120045764A1, “METHOD OF EXPANDING HUMAN HEPATOCYTES IN VIVO” (priority 2009, published 2012).

Where “and” joins values, the source holds several entries; their conditions need not be identical. Identical values can stand only once. Entries after “also recorded” stand apart in the source; their conditions may differ.

Series [1] relates to human drug metabolism genes. Briefly: Induction of mRNAs of drug metabolism genes in cultured hepatocytes from humanized mice (real-time PCR). It is filed as cell-based. To be noted: cultured hepatocytes from chimeric mice, mRNA. Here is the method: (§1) Cultures of isolated hepatocytes were established and exposed to prototypical inducers of the cytochrome P450 genes. […]. In addition to the mRNA expression levels of human drug metabolism genes, the enzymatic activity of the human CYP1A and 3A family members were measured. Ethoxyresorufin-O-deethylase activity (EROD) is known to be mediated by CYP1A1 and 1A2 in human liver. […] Thus, hepatocytes from repopulated FRG livers were indistinguishable from normal human adult hepatocytes in these standard drug metabolism assays.

The next series relates to CYP1A1 and 1A2. Briefly: Ethoxyresorufin-O-deethylase (EROD) activity in cultured hepatocytes from humanized mice. To be noted: humanized mouse liver cells in culture. It is filed as cell-based, human. Here is the method:
as §1

Series [2] concerns FRG mice. Briefly: Maintenance of FRG mice on NTBC in drinking water and NTBC withdrawal. It is filed as in vivo, mouse. The protocol: To generate an immunodeficient Fah^−/− mouse strain completely lacking T cells, B cells and NK cells, but without a DNA repair defect, Fah^−/−/Rag2^−/−/Il2rg^−/− (FRG) mice were generated. Male Fah^−/−129S4 mice (Grompe et al. Genes Dev. 7:2298-2307, 1993) were crossed with female Rag2^−/−/Il2rg^−/− mice (Taconic). All animals were maintained with drinking water containing 2-(2-nitro-4-trifluoro-methyl-benzoyl)-1,3 cyclohexanedione (NTBC) at a concentration of 1.6 mg/L (Grompe et al. Nat. Genet. 10:453-460, 1995). To confirm the genotypes of each animal, PCR-based genotyping was carried out on 200 ng genomic DNA isolated from toe tissue (Grompe et al. Genes Dev. 7:2298-2307, 1993; Traggiai et al. Science 304:104-107, 2004).

The subject of series [3] is CYP3A4. Briefly: Conversion of testosterone to 6-beta-hydroxyltestosterone in cultured hepatocytes from humanized mice. To be noted: cultured hepatocytes from repopulated FRG livers. An excerpt: (§2) The basal expression and induction of human liver specific genes in chimeric mice was examined. […] Primers, obtained from Applied Biosystems, were specific for human CYP1A1 (Hs00153120_m1), CYP1A2 (Hs00167927_m1), CYP3A4 (Hs00430021_m1), CYP3A7 (Hs00426361_a1), CYP2B6 (Hs00167937_g1), CYP2D6 (Hs00164385_a1), Multidrug resistance associated protein MRP2 (Hs00166123_m1), Bile Salt export Pump BSEP, (Hs00184829_m1), CAR (Hs00231959_m1) Albumin (Hs00609411_m1), HNF4α (Hs00230853_m1), Cyclophillin (Hs99999904_m1) and mouse actin (Ma00607939_s1).
Cultures of isolated hepatocytes were established and exposed to prototypical inducers of the cytochrome P450 genes. […] In addition to the mRNA expression levels of human drug metabolism genes, the enzymatic activity of the human CYP1A and 3A family members were measured. Ethoxyresorufin-O-deethylase activity (EROD) is known to be mediated by CYP1A1 and 1A2 in human liver.

For series [4], the system named is CYP3A4. Briefly: Induction of CYP3A4 mRNA in hepatocytes from humanized mice (real-time PCR). The conditions noted are these: relative to non-induced cultures; FIG. 7B.
Description: as §2

Series [5] relates to FRG mice. Briefly: Liver repopulation of FRG mice treated with anakinra (blood human albumin by ELISA). It is filed as in vivo, mouse. The conditions noted are these: for blood level of human albumin, Elisa #1: Experiment #3, serial transplantation. Here is the method: Small amounts of blood were collected once a week from the left saphenous vein with a heparinized blood capillary. After 1,000 or 10,000× dilution with Tris-buffered saline, human albumin concentration was measured with the Human Albumin ELISA Quantitation Kit (Bethyl) according to the manufacturer's protocol.
One million human hepatocytes from the same batch were injected intrasplenically into six FRG mice. In three mice, anakinra (2 mg) was administered intraperitoneally during surgery and then once daily for six additional doses (total dose=14 mg over 7 days). One month after transplantation, blood human albumin was measured by ELISA. […] All three anakinra-treated mice had much higher albumin levels (130, 165 and 200 μg/ml).
Additional experiments validated these initial observations. […] Cohorts of genetically identical mice were injected with the same batch of human cells and were either untreated (Con) or treated with anakinra (Ana). Different dosing regimens of anakinra were used and different lengths of administration were tested. High dose anakinra (Hi) was 2 mg/mouse/day and low dose (lo) was 0.4 mg/mouse/day. The drug was injected daily for either 3 days (×3) or 7 days (×7). Blood levels of human albumin were measured by ELISA to ascertain the degree of human repopulation.

In the case of `O=c1cc(-c2ccccc2)oc2ccc3ccccc3c12` [BNF, beta-naphthoflavone], the “pattern of genes induced” value in series [1] is listed as “as expected from normal human cells”. Besides, in the series on CYP1A1 and 1A2, the “EROD activity after prior exposure to inducer” value was “specifically and robustly induced”.

On to `O=C1CCCC(=O)C1C(=O)c1ccc(C(F)(F)F)cc1[N+](=O)[O-]` [NTBC, 2-(2-nitro-4-trifluoro-methyl-benzoyl)-1,3 cyclohexanedione], for which, in the series with FRG mice [2] (FRG mice, gradual hepatocellular injury after withdrawal), the “death after NTBC withdrawal” value is recorded as 4-8 weeks. Moreover, in the series on FRG mice [2] (NTBC continuously in drinking water, 1.6 mg/L), the “growth and fertility of FRG mice” value is “grew well and were fully fertile”.

As to `CCC1(c2ccccc2)C(=O)NC(=O)NC1=O` [PB, phenobarbital], in the series on CYP3A4 [3], the “conversion of testosterone to 6-beta-hydroxyltestosterone after prior exposure to inducer” value was “specifically induced”. The “induction of CYP3A4 mRNA” value in the series on CYP3A4 [4] is on record as “even more striking than at the enzyme level”.

Regarding “anakinra: recombinant, non-glycosylated version of human IL-1RA (IL-1 receptor antagonist), 153 amino acids, SEQ ID NO: 21”, the “blood level of human albumin, Elisa #2” value in the series with FRG mice [5] (Experiment #1, primary transplantation, high dose (2 mg/mouse/day) x7) was 5.6 mg and 4.8 mg. Further, the “blood level of human albumin, Elisa #1” value in the series on FRG mice [5] (Hi (2 mg/mouse/day) x3) is 52 μg-Hi x3 and 60 μg-Hi x3; with FRG mice [5] (Hi (2 mg/mouse/day) x7) it was 38 μg-Hi x7 and 56 μg-Hi x7. For the same molecule, the blood human albumin in the series on FRG mice [5] (FRG mice, one million human hepatocytes intrasplenically, anakinra 2 mg i.p. during surgery then once daily for six doses (total 14 mg over 7 days), one month after transplantation) is 130 µg/mL and 165 µg/mL and 200 µg/mL. In addition, in the series with FRG mice [5] (anakinra-treated versus untreated FRG mice), the “hepatocyte repopulation (in words)” value is recorded as “remarkably enhanced; also recorded: consistently had much higher levels of repopulation”. Also, the “enhanced repopulation versus untreated mice” value in the series on FRG mice [5] (on average, three independent tests of Table 6) is listed as “approximately 100 fold”. The “percentage of highly humanized FRG mice after transplantation of human hepatocytes” value with FRG mice [5] (with anakinra treatment versus without) was “significantly higher”.
